The assay addresses T1, BRD4-BD1 (Homo sapiens, UniProt O60885).
T1 construct: 15 nM GST-BRD4-BD1 protein (aa 44-168)
Briefly: BRD4-H4 tetraacetylated peptide inhibition AlphaScreen. The assay is classed as binding. Particulars: 15 nM GST-BRD4-BD1 (aa 44-168), 15 nM biotinylated Acetyl-Histone H4 (Lys5, 8, 12, 16) peptide, 30 min at RT. As to the method:
Biological Methods BRD4-H4 Tetraacetylated Peptide Inhibition AlphaScreen
Compounds are diluted in serial dilution 1:5 in assay buffer from 10 mM stock in DMSO (100 μM start concentration) in white OptiPlate-384 (PerkinElmer). A mix consisting of 15 nM GST-BRD4-BD1 protein (aa 44-168) or 150 nM GST-BRD4-BD2 (aa 333-460) and 15 nM biotinylated Acetyl-Histone H4 (Lys5, 8, 12, 16) peptide is prepared in assay buffer (50 mM HEPES pH=7.4; 25 mM NaCl; 0.05% Tween 20; 0.1% bovine serum albumin (BSA); 10 mM dithiothreitol (DTT)). 6 μl of the mix is added to the compound dilutions. Subsequently, 6 μl of premixed AlphaLISA Glutathione Acceptor Beads and AlphaScreen Streptavidin Donor Beads from PerkinElmer (in assay buffer at a concentration of 10 μg/ml each) are added and the samples are incubated for 30 min at RT in the dark (shaking 300 rpm). Afterwards, the signal is measured in a PerkinElmer Envision HTS Multilabel Reader using the AlphaScreen protocol from PerkinElmer.
Each plate contains negative controls where biotinylated Acetyl-Histone H4 peptide and GST-BRD4-BD1 or GST-BRD4-BD2 are left out and replaced by assay buffer. Negative control values are entered as low basis value when using the software GraphPad Prism for calculations. Furthermore, a positive control (probe molecule JQ1+ with protein/peptide mix) is pipetted. Determination of IC50 values are carried out using GraphPad Prism 3.03 software (or updates thereof).
(In general: Alpha assays give light when donor and acceptor beads are brought close together.)

For `Cc1cc(-c2nc3cc4c(cc3n2[C@@H](C)c2ccccc2)N(C)C(=O)C4(C)C)cn(C)c1=O` [I-7], the IC50 amounted to 4 nM.

`Cc1nc(-c2nc3cc4c(cc3n2[C@@H](C)c2ccccc2)N(C(C)C)C(=O)C4(C)C)cn(C)c1=O` [I-5] yielded a half-maximal inhibitory concentration (IC50) of 9 nM.

Compound `COC[C@H](C)n1c(-c2cc(C)c(=O)n(C)c2)nc2cc3c(cc21)N(C(C)C)C(=O)C3(C)C` [I-4] returned an IC50 of 22 nM.

On to `CCN1C(=O)C(C)(C)c2cc3nc(-c4cc(C)c(=O)n(C)c4)n([C@@H](C)c4ccccc4)c3cc21` [I-8], for which the half-maximal inhibitory concentration (IC50) was determined as 2 nM.

With `Cc1cc(-c2nc3cc4c(cc3n2Cc2ccccn2)N(C)C(=O)C4(C)C)cn(C)c1=O` [I-3], it took 44 nM to reach half-maximal inhibition (IC50).

`Cc1nc(-c2nc3cc4c(cc3n2[C@@H](C)c2ccccc2)N(C)C(=O)C4(C)C)cn(C)c1=O` [I-6] came in with an IC50 of 15 nM.

On to `Cc1cc(-c2nc3cc4c(C)nn(C)c4cc3n2[C@@H](C)c2ccccc2)cn(C)c1=O` [III-1], for which the IC50 came to 5 nM.

In turn, `Cc1cc(-c2nc3cc4c(cc3n2[C@@H](C)c2ccccc2)C(=O)N(C)C4(C)C)cn(C)c1=O` [II-1] showed an IC50 of 13 nM.

For `Cc1cc(-c2nc3cc4c(cc3n2[C@@H](C)c2ccccc2)N(C(C)C)C(=O)C42CC2)cn(C)c1=O` [I-9], the IC50 was 17 nM.

`COC[C@H](C)n1c(-c2cc(C)c(=O)n(C)c2)nc2cc3c(cc21)N(C)C(=O)C3(C)C` [I-1, 2-(1,5-Dimethyl-6-oxo-1,6-dihydro-pyridin-3-yl)-3-((S)-2-methoxy-1-methyl-ethyl)-5,7,7-trimethyl-5,7-dihydro-3H-imidazo[4,5-f]indol-6-one]: the IC50 was 50 nM.

For `CCn1nc(C)c2cc3nc(-c4cc(C)c(=O)n(C)c4)n([C@@H](C)c4ccccc4)c3cc21` [III-2], 8 nM corresponded to half-maximal inhibition (IC50).

Consider `CCc1nn(C)c2cc3c(cc12)nc(-c1cc(C)c(=O)n(C)c1)n3[C@@H](C)c1ccccc1` [III-3], for which 9 nM corresponded to half-maximal inhibition (IC50).

`Cc1cc(-c2nc3cc4c(cc3n2[C@@H](C)c2ccccc2)N(C(C)C)C(=O)C4(C)C)cn(C)c1=O` [I-2, 2-(1,5-Dimethyl-6-oxo-1,6-dihydro-pyridin-3-yl)-5-isopropyl-7,7-dimethyl-3-((S)-1-phenyl-ethyl)-5,7-dihydro-3H-imidazo[4,5-f]indol-6-one] came in with an IC50 of 3 nM.

By IC50 is commonly meant the concentration that gives 50% inhibition. The low end stands for inhibition by little substance, the high end for a need for much substance.

Values taken from patent publication US9428515B2, “Benzimidazole derivatives” (Boehringer Ingelheim International GmbH, priority 2014, dated 2016).
